Measured values from paper PMC12505664, “Enflicoxib for the long-term management of canine osteoarthritis—External validation of a population pharmacokinetic model in dogs with osteoarthritis” (Frontiers in Veterinary Science, 2025).
Read-outs that look alike come from different tables or passages of the source. Each block holds one compound with its values, some of them ahead of it.

Tests used:
[1] = tested on: canine osteoarthritis; set-up: method as in Salichs et al., Vet Rec. 2022; conditions: Mavacoxib group n=58, ref Salichs et al., Vet Rec. 2022, cited from earlier work
[2] = Plasma levels of enflicoxib and pyrazol metabolite in the 6-month field clinical study (HPLC-MS/MS); format: in vivo, client-owned dogs with OA; conditions: for Mean plasma level: oral 8 mg/kg then 4 mg/kg weekly
Procedure: A prospective, multisite, blinded, randomized, placebo-controlled, parallel-group field study was performed in accordance with Good Clinical Practice standards ([16]). The study aimed to confirm the safety and efficacy of enflicoxib treatment of pain and inflammation associated with naturally occurring canine OA in dogs of any breed and sex treated for 6 months. The protocol was approved by the regulatory authorities of both Portugal and Hungary. Written informed consent was obtained from all dog owners prior to enrolment of their dogs. Dogs remained under the care of their owners at home throughout the study.
Before enrolment, all dogs underwent a physical examination, and blood and urine samples were taken. After enrollment, dogs were randomized in a predefined enflicoxib:placebo ratio of 3:1. Enflicoxib was dosed orally at weekly intervals, with an initial dose of 8 mg/kg, followed by once-a-week maintenance doses of 4 mg/kg for a total of 26 weeks. Dogs in the enflicoxib group received Daxocox® tablets (Ecuphar/Animalcare group), while dogs in the placebo group received the same formulation without the active ingredient under the same posology (number of tablets and dosing interval). […] No positive control was included due to difficulties in maintaining blinding with products under different posology during the entire follow-up period.
Two blood samples for popPK analysis were collected from all animals enrolled in the study one on day 44(±2 days)/1.5 months, (similar to the last sample taken in the previous clinical studies), after clinical assessment of pain and lameness and prior to treatment administration and another one at the end of the study on day 189/6 months (±2 days), or individual premature study termination day. Day 189 corresponds to the trough concentration after the 27th weekly administration (PK sample taken at the end of the weekly dosing interval). Meanwhile, day 44 corresponds to a PK sample obtained 2 days after the 7th weekly administration. The veterinary practices had the necessary resources and adequate freezing equipment for the long-term storage of plasma samples. Blood samples were collected into potassium-3-ethylenediaminetetraacetic acid (K3EDTA) labeled tubes, which were immediately centrifuged at ~2,500g for 10 min (at +4 °C whenever possible) to obtain plasma. Once received, plasma was transferred into two labeled propylene tubes (aliquots 1 and 2). Each plasma aliquot was stored frozen at a nominal temperature of −20 (±2) °C until shipment to the Laboratory of analysis Welab Barcelona (Parc Científic de Barcelona, C/Baldiri Reixac 4-12, 08028, Barcelona). The maximum storage time for the samples was 376 days at nominally −20 °C/−80 °C. Considering the long-term stability of enflicoxib and its metabolite in dog plasma samples stored at −20 °C, which spans a minimum of 402 days, the stability of the study samples was guaranteed for the entire duration of the study. Samples were analyzed without information on the treatment allocation (laboratory-blinded study).
Enflicoxib and pyrazol metabolite plasma levels were measured by a previously fully validated high-performance liquid chromatography (HPLC)-method coupled with tandem mass spectrometry (MS/MS) detection as described in Homedes et al. ([4]).

[3] = set-up: method as in PMID 34854245; conditions: popPK model, cited from earlier work
[4] = Maximum a posteriori Bayesian (MAPB) estimation of individual PK parameters in dogs with OA; format: in vivo
Description: As a similar PK behavior between populations was concluded, the same popPK model could be used, and a Bayesian approach was used for the determination of individual enflicoxib and the pyrazol metabolite exposure in osteoarthritic animals.
A maximum a posteriori Bayesian (MAPB) estimation using the post hoc subroutine in NONMEM was used to provide the individual PK parameters in osteoarthritic dogs.
MAPB estimation applied likelihood maximization in the form of minimizing the objective function (minus 2 log likelihood), to estimate individual PK parameters of each dog with OA. In this analysis, the MAPB estimation incorporated both a priori PK information, that is, the established PK model of enflicoxib and the pyrazol metabolite in healthy Beagle dogs, and a posteriori PK data, which corresponds to PK data from osteoarthritic dogs. The individual PK parameters along with individual predicted PK profiles for each dog treated with enflicoxib were calculated by fitting the animal PK dataset, which includes dosing, sampling times, parent and metabolite levels, and covariate information, to the established population enflicoxib and the pyrazol metabolite PK model in healthy Beagle dogs.
The maximum a posteriori Bayesian (MAPB) estimation was applied to provide the most likely individual PK profile for each dog with OA, using the “POSTHOC” subroutine and $ESTIMATION command set to MAXEVAL=0 in NONMEM.
Individual PK parameters and individual PK profiles of enflicoxib and the pyrazol metabolite were estimated for each dog.
Finally, the Bayesian approach enabled the estimation of the main individual PK parameters of enflicoxib and the pyrazol metabolite. Using these individual PK parameters, predicted profiles for each animal were estimated, allowing the calculation of the derived exposure parameters, such as Cmax, Cmin, AUCτ, and T1/2 in all treated dogs. The distribution and the mean estimates of enflicoxib and the pyrazol metabolite PK parameters at selected time points are depicted in Supplementary Figures S3, S4, respectively.

[5] = set-up: method as in PMID 34160092; conditions: previously validated method, cited from earlier work
[6] = set-up: method as in PMID 34160092; conditions: Beagle dogs, oral enflicoxib; cited from earlier work
[7] = overdose study, repeated weekly administrations, Beagle dogs; cited from earlier work
[8] = metabolite, typical value at 9.9 kg
[9] = weeks 12–26, Bayesian predicted profiles

Structure (SMILES): NS(=O)(=O)c1ccc(-n2nc(C(F)(F)F)cc2-c2ccc(F)cc2)cc1 [Mavacoxib]
Number of animals presenting AEs (%): Emesis or nausea ([1]; AEs classified A, B or O): 4 (6.9) | Emesis and nausea: Number of events ([1]; AEs related to the GI system): 6 | Diarrhoea / pasty stools: Duration range [1]: 1 to 4 days | Diarrhoea / pasty stools: Mean duration [1]: 2 days | Diarrhoea / pasty stools: Number of events [1]: 3 | Diarrhoea / pasty stools: Treatment needed [1]: 0 | Emesis and nausea: Mean duration [1]: 4.2 days | Emesis and nausea: Treatment needed [1]: 2 | Number of animals presenting AEs (%): Abdominal pain [1]: 0 | Number of animals presenting AEs (%): Acute renal failure [1]: 1 (1.7) | Number of animals presenting AEs (%): Apathy [1]: 0 | Number of animals presenting AEs (%): Constipation [1]: 1 (1.7) | Number of animals presenting AEs (%): Diarrhoea or pasty stools [1]: 3 (5.2) | Number of animals presenting AEs (%): Increased salivation [1]: 0 | Number of animals presenting AEs (%): Polydipsia [1]: 0 | Number of animals presenting AEs (%): Total [1]: 6 (10.3) | Number of animals presenting AEs (%): Weight loss [1]: 0 | Emesis and nausea: Duration range ([1]; upper end one animal): 1 to 14 days

Mean plasma level ([2]; day 44 (2 days after 7th weekly administration), N=75): 2,105.6 ng/mL | Max plasma level ([2]; day 44, N=75): 4,728.5 ng/mL | Min plasma level ([2]; day 44, N=75): 2.5 ng/mL | Probability (%) concentration < 10 ng/mL ([2]; day 44, N=75): 4.0% | Probability (%) concentration < LOQ ([2]; day 44, N=75): 4.0% | Probability (%) concentration < 10 ng/mL ([2]; day 44, N=75, listed as pyrazol metabolite): 4% | Mean plasma level ([2]; day 93 (premature study termination), N=2): 3,928.8 ng/mL | Max plasma level ([2]; day 93, N=2): 5,029.0 ng/mL | Min plasma level ([2]; day 93, N=2): 2,828.5 ng/mL | Probability (%) concentration < 10 ng/mL ([2]; day 93, N=2): 0.0% | Probability (%) concentration < LOQ ([2]; day 93, N=2): 0.0% | Mean plasma level ([2]; day 189 (trough after 27th weekly administration), N=65): 2,317.4 ng/mL | Max plasma level ([2]; day 189, N=65): 7,541.8 ng/mL | Min plasma level ([2]; day 189, N=65): 2.5 ng/mL | Probability (%) concentration < 10 ng/mL ([2]; day 189, N=65): 4.6% | Probability (%) concentration < LOQ ([2]; day 189, N=65): 1.5% | Probability (%) concentration < 10 ng/mL ([2]; day 189, N=65, listed as pyrazol metabolite): 5% | Time to PK steady-state ([4]; weekly treatment): 10–12 weeks | AUCτ [4, 9]: 16,742 ng/ml·day | Cmax [4, 9]: ~ 2,490 ng/mL | Cmin [4, 9]: 2,243 ng/mL
Structure (SMILES): NS(=O)(=O)c1ccc(-n2nc(C(F)(F)F)cc2-c2ccc(F)cc2F)cc1 [Pyrazol metabolite]
IIV of CLM/F (apparent clearance) ([3]; interindividual variability as % CV): 31% | Residual variability ([3]; log error model, % CV): 20% | CLM/F = θ7·(WGT/9.9)^0.75, θ7 estimate (apparent clearance) [3, 8]: 0.111 L/h | VM/F = θ4·(WGT/9.9)^1.0, θ4 estimate (apparent volume of distribution, central compartment) [3, 8]: 6.59 L | Time-dependent pharmacokinetics or over-accumulation ([4]; 6 months of weekly treatment): no evidence of time-dependent pharmacokinetics or over-accumulation | Stability in dog plasma ([5]; following 4 freeze–thaw cycles): stable | Stability in dog plasma ([5]; nominally −20 °C for 402 days): stable | Stability in dog plasma ([5]; room temperature for 4 h): stable | Long-term stability in dog plasma samples ([5]; stored at −20 °C): ≥ 402 days | mean terminal elimination half-life (t 1/2) [6]: 17 days | Dose proportionality of pharmacokinetics [7]: dose-proportional pharmacokinetics
